Test results as given in ChEMBL document CHEMBL1140845, “Synthesis of deoxygenated alpha(1-->5)-linked arabinofuranose disaccharides as substrates and inhibitors of arabinosyltransferases of Mycobacterium tuberculosis” (Bioorg Med Chem, 2009).
Active and inactive are the calls of the source. The calls are words filed in the database; no cut-off is given here.

Tested on: Mycobacterium tuberculosis
Assay: Antimycobacterial activity against multidrug resistant Mycobacterium tuberculosis H37Ra at 12.8 to 128 ug/mL
Format: functional, organism-based

SMILES | Activity
CCCCCCCCO[C@@H]1C[C@H](O)[C@@H](CO[C@H]2O[C@H](CO)[C@@H](O)[C@@H]2O)O1 | Active
CCCCCCCCO[C@H]1O[C@H](CO[C@H]2O[C@H](CO)[C@@H](O)[C@@H]2O)[C@@H](O)[C@@H]1F | Active
CCCCCCCCO[C@H]1O[C@H](CO[C@H]2O[C@H](CO)[C@@H](O)[C@@H]2O)C[C@@H]1O | Active
